The target of this experiment is T1, Androgen Receptor (Homo sapiens, UniProt P10275).
T1 construct: endogenous in cells; host or cells: VCaP cells
T1 sequence (P10275 1-920): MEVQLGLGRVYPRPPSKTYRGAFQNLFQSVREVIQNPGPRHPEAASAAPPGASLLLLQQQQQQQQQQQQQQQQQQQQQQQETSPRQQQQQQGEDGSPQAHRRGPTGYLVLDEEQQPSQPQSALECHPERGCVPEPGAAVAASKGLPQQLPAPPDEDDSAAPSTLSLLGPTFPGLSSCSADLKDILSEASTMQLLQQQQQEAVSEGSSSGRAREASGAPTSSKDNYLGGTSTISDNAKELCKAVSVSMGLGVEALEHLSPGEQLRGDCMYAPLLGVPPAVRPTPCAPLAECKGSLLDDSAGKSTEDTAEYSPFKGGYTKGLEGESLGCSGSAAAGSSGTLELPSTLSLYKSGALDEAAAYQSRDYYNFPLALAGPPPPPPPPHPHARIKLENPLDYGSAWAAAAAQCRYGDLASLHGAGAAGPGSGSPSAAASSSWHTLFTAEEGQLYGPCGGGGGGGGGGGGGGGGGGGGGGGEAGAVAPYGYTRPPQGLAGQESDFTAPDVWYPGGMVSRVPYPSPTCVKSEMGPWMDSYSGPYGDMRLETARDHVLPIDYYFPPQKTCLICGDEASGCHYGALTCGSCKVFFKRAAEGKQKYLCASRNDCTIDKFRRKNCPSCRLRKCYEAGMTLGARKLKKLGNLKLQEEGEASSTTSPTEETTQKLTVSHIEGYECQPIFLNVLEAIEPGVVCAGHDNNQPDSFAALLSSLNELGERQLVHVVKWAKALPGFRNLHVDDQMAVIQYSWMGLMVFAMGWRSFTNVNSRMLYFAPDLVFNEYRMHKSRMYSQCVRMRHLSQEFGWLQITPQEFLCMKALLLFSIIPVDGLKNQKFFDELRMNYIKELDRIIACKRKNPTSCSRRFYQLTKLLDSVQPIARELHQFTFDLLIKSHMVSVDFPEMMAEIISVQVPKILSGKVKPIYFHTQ
Put plainly: Androgen Receptor ELISA assay (PathScan AR ELISA) in VCaP cells: AR degradation, Dmax and DC50. The experiment is classed as cell-based. An outline of the steps:
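VCaP cells, 30,000/well, grown ≥3 days in phenol red-free RPMI with 5% charcoal-stripped FBS; compound added in 0.1% DMSO with 0.1 nM R1881, 7 half-log doses, 24 h. Lysate AR quantified by PathScan sandwich ELISA, HRP/TMB read at 450 nm, giving DC50 and Dmax.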
(In general: ELISA stands for enzyme-linked immunosorbent assay.)

The mark [1] stands for this setting: VCaP cells; Table 36; read-out: VCaP DC50.
The mark [2] stands for this setting: VCaP, VCaP cells; Table 36; read-out: VCaP Dmax (%).
Setting [3] is: VCaP, read-out: VCaP Dmax (%), VCaP cells; Table 36.
Setting [4] is: read-out: VCaP DC50; VCaP cells; Table 36.

Like-named read-outs stand apart in the source and are kept apart here. Where only a bound is given, the exact number is not on record here.

Take `Cc1ncsc1-c1ccc([C@H](C)NC(=O)[C@@H]2C[C@@H](OC(=O)OC(C)C)CN2C(=O)[C@@H](NC(=O)COCCCCCNc2ccc(C(=O)N[C@H]3C(C)(C)[C@H](Oc4ccc(C#N)c(Cl)c4)C3(C)C)cc2)C(C)(C)C)cc1` [Example 652, (3R,5S)-1-((S)-2-(2-((5-((4-(((1r,3r)-3-(3-chloro-4-cyanophenoxy)-2,2,4,4-tetramethylcyclobutyl)carbamoyl)phenyl)amino)pentyl)oxy)acetamido)-3,3-dimethylbutanoyl)-5-(((S)-1-(4-(4-methylthiazol-5-yl)phenyl)ethyl)carbam-oyl)pyrrolidin-3-yl isopropyl carbonate]: the half-maximal degradation concentration (DC50) under setting [1] is greater than 501 nM. Also, under setting [2], the Dmax is less than 25%.
Turning to `Cc1ncsc1-c1ccc(C(C)NC(=O)[C@@H]2C[C@@H](OCOC(=O)OC(C)C)CN2C(=O)[C@@H](NC(=O)COCCCCCNc2ccc(C(=O)N[C@H]3C(C)(C)[C@H](Oc4ccc(C#N)c(Cl)c4)C3(C)C)cc2)C(C)(C)C)cc1` (stereo partly drawn) [Example 653, (((3R,5S)-1-((S)-2-(2-((5-((4-(((1r,3r)-3-(3-chloro-4-cyanophenoxy)-2,2,4,4-tetramethylcyclobutyl)carbamoyl)phenyl)amino)pentyl)oxy)acetamido)-3,3-dimethylbutanoyl)-5-(((S)-1-(4-(4-methylthiazol-5-yl)phenyl)ethyl)carbam-oyl)pyrrolidin-3-yl)oxy)methyl isopropyl carbonate], the DC50 under setting [1] is less than 50 nM. Moreover, the maximal degradation (Dmax) under setting [2] was 51 to 70%.
For `Cc1ncsc1-c1ccc([C@H](C)NC(=O)[C@@H]2C[C@@H](O)CN2C(=O)[C@@H](NC(=O)COCCN2CCN(c3ccc(C(=O)N[C@H]4C(C)(C)[C@H](Oc5ccc(C#N)c(Cl)c5)C4(C)C)nc3)CC2)C(C)(C)C)cc1` [Example 654, N-((1r,3r)-3-(3-chloro-4-cyanophenoxy)-2,2,4,4-tetramethylcyclobutyl)-5-(4-(2-(2-(((S)-1-((2S,4R)-4-hydroxy-2-(((S)-1-(4-(4-methylthiazol-5-yl)phenyl)ethyl)carbam-oyl)pyrrolidin-1-yl)-3,3-dimethyl-1-oxobutan-2-yl)amino)-2-oxoethoxy)ethyl)pipera-zin-1-yl)picolinamide], the DC50 under setting [1] is less than 50 nM. In addition, the Dmax under setting [2] was greater than 71%.
For the molecule `Cc1ncsc1-c1ccc([C@H](C)NC(=O)[C@@H]2C[C@@H](O)CN2C(=O)[C@@H](NC(=O)[C@H](CO)N2CCN(CCOc3ccc(C(=O)N[C@H]4C(C)(C)[C@H](Oc5ccc(C#N)c(Cl)c5)C4(C)C)cc3)CC2)C(C)(C)C)cc1` [Example 655, (2S,4R)-1-((S)-2-((S)-2-(4-(2-(4-(((1r,3r)-3-(3-chloro-4-cyanophenoxy)-2,2,4,4-tetramethylcyclobutyl)carbamoyl)phenoxy)eth-yl)piperazin-1-yl)-3-hydroxypropanamido)-3,3-dimethylbutanoyl)-4-hydroxy-N-((S)-1-(4-(4-methylthiazol-5-yl)phenyl)ethyl)pyrrolidine-2-carboxamide], under setting [1], the 50% degradation concentration (DC50) is greater than 501 nM. Where the note is “VCaP, read-out: VCaP Dmax (%)”, the Dmax fell in the range of 26 to 50%.
For the molecule `Cc1ncsc1-c1ccc([C@H](C)NC(=O)[C@@H]2C[C@@H](O)CN2C(=O)[C@@H](NC(=O)COCCCCCNc2ccc(C(=O)N[C@H]3C(C)(C)[C@H](Oc4ccc(C#N)c(Cl)c4)C3(C)C)cc2F)C(C)(C)C)cc1` [Example 656, (2S,4R)-1-((S)-2-(2-((5-((4-(((1r,3r)-3-(3-chloro-4-cyanophenoxy)-2,2,4,4-tetramethylcyclobutyl)carbamoyl)-2-fluorophenyl)amino)pentyl)oxy)acetamido)-3,3-dimethylbutanoyl)-4-hydroxy-N-((S)-1-(4-(4-methylthiazol-5-yl)phenyl)ethyl)pyrrolidine-2-carboxamide], under setting [1], the 50% degradation concentration (DC50) is less than 50 nM. For the same molecule, under setting [3], the greatest degradation seen (Dmax) was greater than 71%.
Consider `Cc1ncsc1-c1ccc([C@H](C)NC(=O)[C@@H]2C[C@@H](O)CN2C(=O)[C@@H](NC(=O)COCCCCCc2ccc(C(=O)N[C@H]3C(C)(C)[C@H](Oc4ccc(C#N)c(C(F)(F)F)c4)C3(C)C)cc2)C(C)(C)C)cc1` [Example 657, (2S,4R)-1-((S)-2-(2-((5-(4-(((1r,3r)-3-(4-cyano-3-(trifluoromethyl)phenoxy)-2,2,4,4-tetramethylcyclobutyl)carbamoyl)phenyl)pentyl)oxy)acetamido)-3,3-dimethylbutanoyl)-4-hydroxy-N-((S)-1-(4-(4-methylthiazol-5-yl)phenyl)ethyl)pyrrolidine-2-carboxamide], for which the DC50 under setting [1] is less than 50 nM. Also, the Dmax under setting [3] is 51 to 70%.
Turning to `Cc1ncsc1-c1ccc([C@H](C)NC(=O)[C@@H]2C[C@@H](O)CN2C(=O)[C@H](c2cc(OCCN3CCN(c4ccc(C(=O)N[C@H]5C(C)(C)[C@H](Oc6ccc(C#N)c(Cl)c6)C5(C)C)cn4)CC3)no2)C(C)C)cc1` [Example 658, N-((1r,3r)-3-(3-chloro-4-cyanophenoxy)-2,2,4,4-tetramethylcyclobutyl)-6-(4-(2-((5-((S)-1-((2S,4R)-4-hydroxy-2-(((S)-1-(4-(4-methylthiazol-5-yl)phenyl)ethyl)carbam-oyl)pyrrolidin-1-yl)-3-methyl-1-oxobutan-2-yl)isoxazol-3-yl)oxy)ethyl)piperazin-1-yl)nicotinamide], the DC50 under setting [1] is greater than 501 nM. The Dmax under setting [2] is less than 25%.
As to `Cc1ncsc1-c1ccc([C@H](C)NC(=O)[C@@H]2C[C@@H](O)CN2C(=O)[C@@H](c2cc(OCCN3CCN(c4ccc(C(=O)N[C@H]5C(C)(C)[C@H](Oc6ccc(C#N)c(Cl)c6)C5(C)C)cn4)CC3)no2)C(C)C)cc1` [Example 659, N-((1r,3r)-3-(3-chloro-4-cyanophenoxy)-2,2,4,4-tetramethylcyclobutyl)-6-(4-(2-((5-((R)-1-((2S,4R)-4-hydroxy-2-(((S)-1-(4-(4-methylthiazol-5-yl)phenyl)ethyl)carbam-oyl)pyrrolidin-1-yl)-3-methyl-1-oxobutan-2-yl)isoxazol-3-yl)oxy)ethyl)piperazin-1-yl)nicotinamide], under setting [1], the DC50 is less than 50 nM. Under setting [2], the Dmax is greater than 71%.
Consider `Cc1ncsc1-c1ccc([C@H](C)NC(=O)[C@@H]2C[C@@H](O)CN2C(=O)[C@@H](NC(=O)COCCN2CCN(c3ccc(C(=O)N[C@H]4C(C)(C)[C@H](Oc5ccc(C#N)c(Cl)c5)C4(C)C)cc3)CC2)C(C)(C)O)cc1` [Example 660, (2S,4R)-1-((S)-2-(2-(2-(4-(4-(((1r,3r)-3-(3-chloro-4-cyanophenoxy)-2,2,4,4-tetramethylcyclobutyl)carbamoyl)phenyl)piper-azin-1-yl)ethoxy)acetamido)-3-hydroxy-3-methylbutanoyl)-4-hydroxy-N-((S)-1-(4-(4-methylthiazol-5-yl)phenyl)ethyl)pyrrolidine-2-carboxamide], for which, under setting [1], the half-maximal degradation concentration (DC50) was greater than 501 nM. The Dmax under setting [3] fell in the range of 26 to 50%.
`Cc1ncsc1-c1ccc(C(C)NC(=O)C2CC(O)CN2C(=O)C(NC(=O)COCCCOCCCCCOc2ccc(N3C(=S)N(c4ccc(C#N)c(C(F)(F)F)c4)C(=O)C3(C)C)cc2)C2COC2)cc1` (stereo not shown) [Example 661, 1-(2-(2-(3-((5-(4-(3-(4-cyano-3-(trifluoromethyl)phenyl)-5,5-dimethyl-4-oxo-2-thioxoimidazolidin-1-yl)phenoxy)pentyl)oxy)propoxy)acetamido)-2-(oxetan-3-yl)acetyl)-4-hydroxy-N-(1-(4-(4-methylthiazol-5-yl)phenyl)ethyl)pyrrolidine-2-carboxamide]: the greatest degradation seen (Dmax) (VCaP, read-out: VCaP Dmax (%)) is less than 25%. Besides, the DC50 under setting [4] was greater than 501 nM.
`Cc1cn(-c2ccc([C@H](C)NC(=O)[C@@H]3C[C@@H](O)CN3C(=O)[C@@H](NC(=O)COCCCOCCCCCOc3ccc(N4C(=S)N(c5ccc(C#N)c(C(F)(F)F)c5)C(=O)C4(C)C)cc3)C(C)(C)C)cc2)cn1` [Example 663, (2S,4R)-1-((S)-2-(2-(3-((5-(4-(3-(4-cyano-3-(trifluoromethyl)phenyl)-5,5-dimethyl-4-oxo-2-thioxoimidazolidin-1-yl)phenoxy)pentyl)oxy)propoxy)acetamido)-3,3-dimethylbutanoyl)-4-hydroxy-N-((S)-1-(4-(4-methyl-1H-imidazol-1-yl)phenyl)ethyl)pyrrolidine-2-carboxamide]: the greatest degradation seen (Dmax) (VCaP, read-out: VCaP Dmax (%)) is less than 25%. For the same molecule, the DC50 under setting [4] is greater than 501 nM.

For orientation: DC50 means the concentration at which degradation of the target reaches its halfway point. What is called Dmax is the greatest extent of degradation seen.

The values above are taken from patent US11427548B2 (Arvinas Operations, Inc., priority 2015, dated 2022).
